Experimental data as given in ChEMBL document CHEMBL3885881, “DrugMatrix”.

Species: Rattus norvegicus
Assay: DrugMatrix - Regimen: Daily Repeat
Format: toxicity, organism-based, Sprague-Dawley
Parameters: regimen Daily Repeat, gender Male, age 6-8 weeks
Settings: in vivo, vehicle 100 % SALINE; for ABSOLUTE BASOPHIL / ABSOLUTE EOSINOPHIL / ABSOLUTE LYMPHOCYTE / ABSOLUTE MONOCYTE / ABSOLUTE SEGMENTED NEUTROPHIL / BASOPHIL / EOSINOPHIL / ERYTHROCYTE COUNT / HEMOGLOBIN / LEUKOCYTE COUNT / LYMPHOCYTE / MEAN CORPUSCULAR HEMOGLOBIN / MEAN CORPUSCULAR HEMOGLOBIN CONCENTRATION / MEAN CORPUSCULAR VOLUME / NUCLEATED RED BLOOD CELLS / PLATELET COUNT: tissue Blood
[1] = iv, 0.004 mg/kg, 72 h, dose level Low, time 3 day
[2] = iv, 0.004 mg/kg, 72 h, tissue Plasma, dose level Low, time 3 day
[3] = iv, 0.004 mg/kg, 120 h, dose level Low, time 5 day
[4] = iv, 0.004 mg/kg, 120 h, tissue Plasma, dose level Low, time 5 day
[5] = sc, 0 mg/kg, 72 h, route mini-PUMP - SUBCUTANEOUS, dose level Control, time 3 day
[6] = sc, 0 mg/kg, 72 h, tissue Plasma, route mini-PUMP - SUBCUTANEOUS, dose level Control, time 3 day

CNC[C@H](O)c1ccc(O)c(O)c1 [EPINEPHRINE]
ABSOLUTE BASOPHIL [1]: 0 CELLS/uL | ABSOLUTE EOSINOPHIL [1]: 127.67 CELLS/uL | ABSOLUTE LYMPHOCYTE [1]: 11755 CELLS/uL | ABSOLUTE MONOCYTE [1]: 0 CELLS/uL | ABSOLUTE SEGMENTED NEUTROPHIL [1]: 884 CELLS/uL | BASOPHIL [1]: 0% | EOSINOPHIL [1]: 1% | ERYTHROCYTE COUNT [1]: 5.71 x10E6/uL | HEMOGLOBIN [1]: 14.07 G/DL | LEUKOCYTE COUNT [1]: 12.77 x10E3/uL | LYMPHOCYTE [1]: 92% | MEAN CORPUSCULAR HEMOGLOBIN [1]: 24.73 pg | MEAN CORPUSCULAR HEMOGLOBIN CONCENTRATION [1]: 37.8 G/DL | MEAN CORPUSCULAR VOLUME [1]: 65.37 fL | NUCLEATED RED BLOOD CELLS [1]: 0 /100WBC | PLATELET COUNT [1]: 1271 x10E3/uL | ALANINE AMINOTRANSFERASE [2]: 57.33 u/L | ALBUMIN [2]: 4.43 G/DL | ALKALINE PHOSPHATASE [2]: 425 u/L | ASPARTATE AMINOTRANSFERASE [2]: 75 u/L | BLOOD UREA NITROGEN [2]: 14 mg/dL | CARBON DIOXIDE [2]: 27 mmol/L | CHLORIDE [2]: 101.33 MEQ/L | CHOLESTEROL [2]: 80 mg/dL | CREATINE PHOSPHOKINASE [2]: 187.33 u/L | CREATININE [2]: 0.23 mg/dL | LACTATE DEHYDROGENASE [2]: 118.67 u/L | LIPASE [2]: 9 u/L | PHOSPHORUS [2]: 12.7 mg/dL | POTASSIUM [2]: 6.89 MEQ/L | SODIUM [2]: 145.07 MEQ/L | TOTAL PROTEIN [2]: 6.1 G/DL | ABSOLUTE BASOPHIL [3]: 0 CELLS/uL | ABSOLUTE EOSINOPHIL [3]: 147.67 CELLS/uL | ABSOLUTE LYMPHOCYTE [3]: 10984 CELLS/uL | ABSOLUTE MONOCYTE [3]: 0 CELLS/uL | ABSOLUTE SEGMENTED NEUTROPHIL [3]: 1368.33 CELLS/uL | BASOPHIL [3]: 0% | EOSINOPHIL [3]: 1% | ERYTHROCYTE COUNT [3]: 5.59 x10E6/uL | HEMOGLOBIN [3]: 13.2 G/DL | LEUKOCYTE COUNT [3]: 12.5 x10E3/uL | LYMPHOCYTE [3]: 87.33% | MEAN CORPUSCULAR HEMOGLOBIN [3]: 23.63 pg | MEAN CORPUSCULAR HEMOGLOBIN CONCENTRATION [3]: 37.23 G/DL | MEAN CORPUSCULAR VOLUME [3]: 63.47 fL | NUCLEATED RED BLOOD CELLS [3]: 0 /100WBC | PLATELET COUNT [3]: 1309.33 x10E3/uL | ALANINE AMINOTRANSFERASE [4]: 48 u/L | ALBUMIN [4]: 4.47 G/DL | ALKALINE PHOSPHATASE [4]: 367.33 u/L | ASPARTATE AMINOTRANSFERASE [4]: 79 u/L | BLOOD UREA NITROGEN [4]: 16 mg/dL | CARBON DIOXIDE [4]: 24 mmol/L | CHLORIDE [4]: 103 MEQ/L | CHOLESTEROL [4]: 67.33 mg/dL | CREATINE PHOSPHOKINASE [4]: 204.67 u/L | CREATININE [4]: 0.23 mg/dL | LACTATE DEHYDROGENASE [4]: 102.67 u/L | LIPASE [4]: 8 u/L | PHOSPHORUS [4]: 13.37 mg/dL | POTASSIUM [4]: 6.61 MEQ/L | SODIUM [4]: 145.67 MEQ/L | TOTAL PROTEIN [4]: 6.3 G/DL | ABSOLUTE BASOPHIL [5]: 0 CELLS/uL | ABSOLUTE EOSINOPHIL [5]: 77.17 CELLS/uL | ABSOLUTE LYMPHOCYTE [5]: 14293.83 CELLS/uL | ABSOLUTE MONOCYTE [5]: 354 CELLS/uL | ABSOLUTE SEGMENTED NEUTROPHIL [5]: 1658.33 CELLS/uL | BASOPHIL [5]: 0% | EOSINOPHIL [5]: 0.5% | ERYTHROCYTE COUNT [5]: 6.27 x10E6/uL | HEMOGLOBIN [5]: 13.4 G/DL | LEUKOCYTE COUNT [5]: 16.38 x10E3/uL | LYMPHOCYTE [5]: 87.17% | MEAN CORPUSCULAR HEMOGLOBIN [5]: 21.42 pg | MEAN CORPUSCULAR HEMOGLOBIN CONCENTRATION [5]: 36.27 G/DL | MEAN CORPUSCULAR VOLUME [5]: 59.03 fL | NUCLEATED RED BLOOD CELLS [5]: 0 /100WBC | PLATELET COUNT [5]: 904.67 x10E3/uL | ALANINE AMINOTRANSFERASE [6]: 48.33 u/L | ALBUMIN [6]: 3.82 G/DL | ALKALINE PHOSPHATASE [6]: 282.33 u/L | ASPARTATE AMINOTRANSFERASE [6]: 86.83 u/L | BLOOD UREA NITROGEN [6]: 20.17 mg/dL | CARBON DIOXIDE [6]: 34.67 mmol/L | CHLORIDE [6]: 102 MEQ/L | CHOLESTEROL [6]: 71.5 mg/dL | CREATININE [6]: 0.2 mg/dL | LACTATE DEHYDROGENASE [6]: 159 u/L | LIPASE [6]: 9 u/L | PHOSPHORUS [6]: 10.12 mg/dL | POTASSIUM [6]: 5.92 MEQ/L | SODIUM [6]: 147.8 MEQ/L | TOTAL BILIRUBIN [6]: 0.2 mg/dL
